Measurements: ChEMBL document CHEMBL3124933, “Optimization of brain penetrant 11β-hydroxysteroid dehydrogenase type I inhibitors and in vivo testing in diet-induced obese mice” (J Med Chem, 2014)

Assays:
[1] = Oral bioavailability in Han Wistar rat; assay type: ADME, organism-based; conditions: in vivo
physchem = conditions: buffer, pH 7.4
[2] = Clearance in iv dosed Han Wistar rat; assay type: ADME, organism-based; conditions: in vivo
[3] = Ratio of total drug level in brain to blood in Han Wistar rat at 30 mg/kg, po measured at 1 hr by LC-MS/MS analysis; assay type: ADME, organism-based; set-up: dose 30 mg/kg, route oral; conditions: read-out: BBR
[4] = Apparent permeability from apical to basolateral side in MDCK cells; assay type: ADME, cell-based, Canis lupus familiaris; conditions: dog
[5] = Clearance in C57B6 mouse at 3.5 umol/kg, iv; assay type: ADME, organism-based; conditions: in vivo
[6] = Volume of distribution at steady state in C57B6 mouse at 3.5 umol/kg, iv; assay type: ADME, organism-based; conditions: in vivo, read-out: Vdss
[7] = AUC in C57B6 mouse at 17.6 umol/kg, po; assay type: ADME, organism-based, Plasma; conditions: whole blood
[8] = Oral bioavailability in Han Wistar rat at 7.4 umol/kg; assay type: ADME, organism-based; conditions: in vivo
[9] = Clearance in Han Wistar rat at 5.2 umol/kg, iv; assay type: ADME, organism-based; conditions: in vivo
[10] = Ratio of free drug level in brain to blood in Han Wistar rat at 30 mg/kg, po measured at 1 hr by LC-MS/MS analysis; assay type: ADME, organism-based; set-up: dose 30 mg/kg, route oral
[11] = Oral bioavailability in C57B6 mouse at 17.6 umol/kg; assay type: ADME, organism-based; conditions: in vivo
[12] = AUC in Han Wistar rat whole blood at 7.4 umol/kg, po
[13] = Ratio of free drug level in brain to blood in diet-induced obese C57B6 mouse model at 4 to 40 mg/kg/day administered through diet for 21 days measured on day 24; assay type: ADME, organism-based; conditions: po
[14] = Volume of distribution at steady state in Han Wistar rat at 5.2 umol/kg, iv; assay type: ADME, organism-based; conditions: in vivo, read-out: Vdss
[15] = Volume of distribution at steady state in Han Wistar rat at 3.1 umol/kg, iv; assay type: ADME, organism-based; conditions: in vivo, read-out: Vdss
[16] = Ratio of free drug level in brain to blood in diet-induced obese C57B6 mouse model at 20 mg/kg administered through diet for 21 days measured on day 24; assay type: ADME, organism-based; set-up: dose 20 mg/kg; conditions: po
[17] = Oral bioavailability in Han Wistar rat at 12.3 umol/kg; assay type: ADME, organism-based; conditions: in vivo
[18] = AUC in C57B6 mouse at 14.3 umol/kg, po; assay type: ADME, organism-based, Plasma; conditions: whole blood
[19] = Clearance in Han Wistar rat at 3.1 umol/kg, iv; assay type: ADME, organism-based; conditions: in vivo
[20] = Volume of distribution at steady state in C57B6 mouse at 4 umol/kg, iv; assay type: ADME, organism-based; conditions: in vivo, read-out: Vdss
[21] = AUC in Han Wistar rat at 12.3 umol/kg, po; assay type: ADME, organism-based, Plasma; conditions: whole blood
[22] = Clearance in C57B6 mouse at 4 umol/kg, iv; assay type: ADME, organism-based; conditions: in vivo
[23] = Oral bioavailability in C57B6 mouse at 14.3 umol/kg; assay type: ADME, organism-based; conditions: in vivo

bioavailability [1]	logD (physchem)	Kp at 1 h [3]	Compound	further results
0%	1.6	–	O=C(NC1C2CC3CC1CC(O)(C3)C2)c1scnc1[C@H]1CCCO1 (stereo partly specified)	clearance [2]: 52 mL/min/kg
25%	1.6	0.2	O=C(N[C@H]1C2CC3CC1C[C@](O)(C3)C2)c1sc(OCCO)nc1C1CC1	clearance [2]: 5 mL/min/kg
–	1.3	–	Cc1nc(C)c(C(=O)N[C@H]2C3CC4CC2C[C@](O)(C4)C3)s1	–
–	2.4	–	N#CC1CC(Oc2nc([C@H]3CCCO3)c(C(=O)NC3C4CC5CC3CC(O)(C5)C4)s2)C1 (stereo partly specified)	–
–	3.4	–	CC(C)Oc1nc(C2CC2)c(C(=O)N[C@H]2C3CC4CC2C[C@](O)(C4)C3)s1	–
24%	2.1	0.8	COCCOc1nc([C@H]2CCCO2)c(C(=O)NC2C3CC4CC2CC(O)(C4)C3)s1 (stereo partly specified)	clearance [2]: 8 mL/min/kg
64%	–	–	O=C(NC1C2CC3CC1CC(O)(C3)C2)c1cnc(N[C@H]2CCOC2)nc1C1CCCC1 (stereo partly specified)	Papp A→B [4]: 3 ×10⁻⁶ cm/s
–	1.7	–	Nc1nc([C@H]2CCCO2)c(C(=O)N[C@H]2C3CC4CC2C[C@](O)(C4)C3)s1	–
–	1.7	–	COc1ncsc1C(=O)NC1C2CC3CC1CC(O)(C3)C2 (stereo unspecified)	–
–	2.7	–	CN(C)c1nc([C@H]2CCCO2)c(C(=O)N[C@H]2C3CC4CC2C[C@](O)(C4)C3)s1	–
45%	2.6	1.8	COc1nc(C2CC2)c(C(=O)N[C@H]2C3CC4CC2C[C@](O)(C4)C3)s1	clearance [2]: 15 mL/min/kg
–	2.9	–	CCOc1nc(C2CC2)c(C(=O)N[C@H]2C3CC4CC2C[C@](O)(C4)C3)s1	–
16%	2.8	0.9	COC[C@H](C)Oc1nc([C@H]2CCCO2)c(C(=O)NC2C3CC4CC2CC(O)(C4)C3)s1 (stereo partly specified)	clearance [2]: 13 mL/min/kg
35%	2.3	0.3	C[C@@H]1CN(c2ncc(C(=O)NC3C4CC5CC3CC(O)(C5)C4)c([C@H]3CCCO3)n2)C[C@H](C)O1 (stereo partly specified)	Papp A→B [4]: 23 ×10⁻⁶ cm/s
40%	2.3	1.1	COc1nc([C@H]2CCCO2)c(C(=O)N[C@H]2C3CC4CC2C[C@](O)(C4)C3)s1	clearance [2]: 21 mL/min/kg
–	2.4	–	CCc1nc([C@H]2CCCO2)c(C(=O)N[C@H]2C3CC4CC2C[C@](O)(C4)C3)s1	–
–	1.5	–	Cc1nc(C(F)(F)F)c(C(=O)N[C@H]2C3CC4CC2C[C@](O)(C4)C3)s1	–
–	1.8	–	Cc1nc([C@@H]2CCCO2)c(C(=O)N[C@H]2C3CC4CC2C[C@](O)(C4)C3)s1	–
–	3.1	–	CCCSc1nc(C)sc1C(=O)N[C@H]1C2CC3CC1C[C@](O)(C3)C2	–
–	2.1	–	CNc1nc([C@H]2CCCO2)c(C(=O)N[C@H]2C3CC4CC2C[C@](O)(C4)C3)s1	–
–	3	–	Cc1nc(OC(C)C)c(C(=O)N[C@H]2C3CC4CC2C[C@](O)(C4)C3)s1	–

bioavailability [1]	logD (physchem)	Kp at 1 h [3]	Compound	further results
12%	1.9	1.6	Cc1nc(C2CC2)c(C(=O)N[C@H]2C3CC4CC2C[C@](O)(C4)C3)s1	clearance [2]: 14 mL/min/kg
23%	2	1.2	COc1nc(C)sc1C(=O)N[C@H]1C2CC3CC1C[C@](O)(C3)C2	clearance [2]: 22 mL/min/kg
–	2.6	–	CCOc1nc(C)sc1C(=O)N[C@H]1C2CC3CC1C[C@](O)(C3)C2	–
27%	0.4	0.1	COc1c(C(=O)NC2C3CC4CC2CC(O)(C4)C3)cnn1C (stereo unspecified)	–
–	1.5	–	Cc1nc(OC2COC2)c(C(=O)N[C@H]2C3CC4CC2C[C@](O)(C4)C3)s1	–
–	2.6	1.1	O=C(N[C@H]1C2CC3CC1C[C@](O)(C3)C2)c1sc(OC2CCOCC2)nc1[C@H]1CCCO1	clearance [5]: 26 mL/min/kg; Vd [6]: 1.7 L/kg; AUC [7]: 20.6 µM·h; bioavailability [8]: 83%; clearance [9]: 34 mL/min/kg; Kp uu at 1 h [10]: 0.9; bioavailability [11]: 139%; AUC [12]: 3.9 µM·h; Kp uu at 504 h [13]: 0.5; Vd [14]: 1 L/kg
23%	–	1.2	COCCOc1nc(C2CC2)c(C(=O)N[C@H]2C3CC4CC2C[C@](O)(C4)C3)s1	clearance [2]: 27 mL/min/kg
–	3.2	–	Cc1nc(OC2CCC2)c(C(=O)NC2C3CC4CC2CC(O)(C4)C3)s1 (stereo unspecified)	–
65%	0.4	< 0.05	CS(=O)(=O)Cc1nc([C@H]2CCCO2)c(C(=O)NC2C3CC4CC2CC(O)(C4)C3)s1 (stereo partly specified)	clearance [2]: 17 mL/min/kg
–	2.6	–	COC[C@@H](C)Oc1nc(C2CC2)c(C(=O)N[C@H]2C3CC4CC2C[C@](O)(C4)C3)s1	–
11%	1.8	1.5	Cc1nc([C@H]2CCCO2)c(C(=O)N[C@H]2C3CC4CC2C[C@](O)(C4)C3)s1	clearance [2]: 17 mL/min/kg
–	1.9	–	COCc1nc([C@H]2CCCO2)c(C(=O)N[C@H]2C3CC4CC2C[C@](O)(C4)C3)s1	–
–	3.6	–	O=C(N[C@H]1C2CC3CC1C[C@](O)(C3)C2)c1sc(OCC2CC2)nc1C1CC1	–
53%	2.7	1.2	O=C(N[C@H]1C2CC3CC1C[C@](O)(C3)C2)c1sc(OC2CCOCC2)nc1C1CC1	clearance [2]: 21 mL/min/kg
–	2.6	0.4	N#CC1(COc2nc(C3CC3)c(C(=O)N[C@H]3C4CC5CC3C[C@](O)(C5)C4)s2)CC1	Vd [15]: 0.6 L/kg; Kp uu at 504 h [16]: 0.2; bioavailability [17]: 79%; AUC [18]: 12 µM·h; Kp uu at 1 h [10]: 0.4; clearance [19]: 16 mL/min/kg; Vd [20]: 1 L/kg; AUC [21]: 7.9 µM·h; clearance [22]: 18 mL/min/kg; bioavailability [23]: 73%
70%	3.6	–	C[C@@H]1CN(c2ncc(C(=O)NC3C4CC5CC3CC(O)(C5)C4)c(C3CCCC3)n2)C[C@H](C)O1 (stereo partly specified)	Papp A→B [4]: 20 ×10⁻⁶ cm/s
–	1.8	–	COCCc1nc([C@H]2CCCO2)c(C(=O)N[C@H]2C3CC4CC2C[C@](O)(C4)C3)s1	–
–	2.4	–	O=C(N[C@H]1C2CC3CC1C[C@](O)(C3)C2)c1sc(O[C@@H]2CCCO2)nc1C1CC1	–
–	2.8	–	COC[C@H](C)Oc1nc(C2CC2)c(C(=O)N[C@H]2C3CC4CC2C[C@](O)(C4)C3)s1	–
–	0.8	–	O=C(N[C@H]1C2CC3CC1C[C@](O)(C3)C2)c1cncs1	–
–	3.1	–	Cc1nc(OCC(F)(F)F)c(C(=O)N[C@H]2C3CC4CC2C[C@](O)(C4)C3)s1	–
